We go through 10 compounds from US9963445B2, “Chemical compounds” (SYNGENTA PARTICIPATIONS AG, priority 2013, dated 2018).

Holding throughout (type): in vivo
Experiment [1] concerns Abutilon theophrasti. As to the kind of experiment: Pre-emergence herbicidal activity, glasshouse pot test. To be noted: pre-emergence spray, rate 1000 g/ha, evaluated after 13 days, scale 0-5. In a few lines: (§1)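 Damage was rated at 13 days from 0 (none) to 5 (total), in a glasshouse kept at 24/16 °C, 14 h light and 65% humidity with watering twice daily. The aqueous spray of active ingredient in 50:50 acetone/water plus 0.5% Tween 20 was applied to soil one day post-sowing, before emergence.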

In experiment [2] the test system is Echinochloa crus-galli. Described as above. The following applies: pre-emergence spray, rate 1000 g/ha, evaluated after 13 days, scale 0-5. In a few lines:
as §1

Experiment [3] has as its system zea mays. The description is as above. The following applies: pre-emergence spray, rate 1000 g/ha, evaluated after 13 days, scale 0-5. Summed up: as §1
Experiment [4] has as its system Amaranthus retroflexus. The experiment is described as above. To be noted: pre-emergence spray, rate 1000 g/ha, evaluated after 13 days, scale 0-5. Summed up:
as §1

Experiment [5] has as its system Alopecurus myosuroides. Described as above. The following applies: pre-emergence spray, rate 1000 g/ha, evaluated after 13 days, scale 0-5. In a few lines:
as §1

Experiment [6] deals with Setaria faberi. The experiment is described as above. The following applies: pre-emergence spray, rate 1000 g/ha, evaluated after 13 days, scale 0-5. In a few lines:
as §1

For experiment [7], the system named is Abutilon theophrasti. As to the kind of experiment: Post-emergence herbicidal activity, glasshouse pot test. To be noted: Application post-emergence, rate 1000 g/ha, evaluated after 13 days. More on the design: key: 0 = no damage to plant, 5 = total damage to plant. Summed up: (§2)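 Damage rated 0 (none) to 5 (total) 13 days after spraying. Plants were treated post-emergence at 8 days after sowing, using an acetone/water (50:50) formulation with 0.5% Tween 20 diluted to an aqueous spray.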

The test system of experiment [8] is Echinochloa crus-galli. Described as above. The following applies: Application post-emergence, rate 1000 g/ha, evaluated after 13 days. More on the design: key: 0 = no damage to plant, 5 = total damage to plant. In a few lines:
as §2

Experiment [9] concerns zea mays. The experiment is described as above. The following applies: Application post-emergence, rate 1000 g/ha, evaluated after 13 days. More on the design: key: 0 = no damage to plant, 5 = total damage to plant. In a few lines:
as §2

Experiment [10] concerns Amaranthus retroflexus. The description is as above. More on the design: key: 0 = no damage to plant, 5 = total damage to plant. The following applies: Application post-emergence, rate 1000 g/ha, evaluated after 13 days. Summed up: as §2
The test system of experiment [11] is Alopecurus myosuroides. Described as above. More on the design: key: 0 = no damage to plant, 5 = total damage to plant. To be noted: Application post-emergence, rate 1000 g/ha, evaluated after 13 days. Summed up: as §2
Experiment [12] relates to Setaria faberi. The experiment is described as above. More on the design: key: 0 = no damage to plant, 5 = total damage to plant. The following applies: Application post-emergence, rate 1000 g/ha, evaluated after 13 days. In a few lines: as §2

In the case of “6-(4-chloro-2-hydroxy-3-methyl-5-oxo-2H-pyrrol-1-yl)-4-(trifluoromethyl)pyridine-3-carbonitrile [AF3]”, the “ABUTH damage score, application pre-emergence” value (“ABUTH damage score” for short) in experiment [1] turned out to be 0. The “ECHCG damage score, application pre-emergence” value (“ECHCG damage score” for short) in experiment [2] worked out at 4. In addition, the “ZEAMX damage score, application pre-emergence” value (“ZEAMX damage score” for short) in experiment [3] amounted to 2. In addition, in experiment [4], the “AMARE damage score, application pre-emergence” value (“AMARE damage score” for short) is reported as 2. In addition, in experiment [5], the “ALOMY damage score, application pre-emergence” value (“ALOMY damage score” for short) is listed as 3. In experiment [6], the “SETFA damage score, application pre-emergence” value (“SETFA damage score” for short) was 4. Moreover, in [7], the “ABUTH herbicidal damage score” value came out at 5. In addition, the “ECHCG herbicidal damage score” value in experiment [8] was 5. Moreover, the “ZEAMX herbicidal damage score” value in [9] came out at 4. Besides, the “AMARE herbicidal damage score” value in experiment [10] is 5. Also, the “ALOMY herbicidal damage score” value in experiment [11] is 5. For the same compound, in [12], the “SETFA herbicidal damage score” value was 5.

With `COC1=C(C)C(O)N(c2cc(C(C)(C)C)c(Cl)nn2)C1=O` (stereo not drawn) [BI1], the “ABUTH damage score” value in [1] is on record as 4. Moreover, the “ECHCG damage score” value in experiment [2] amounted to 5. For the same compound, the “ZEAMX damage score” value in experiment [3] is on record as 4. Further, in experiment [4], the “AMARE damage score” value was determined as 3. Also, the “ALOMY damage score” value in experiment [5] was 4. For the same compound, the “SETFA damage score” value in experiment [6] came out at 5. Besides, in experiment [7], the “ABUTH herbicidal damage score” value turned out to be 5. Further, in experiment [8], the “ECHCG herbicidal damage score” value is on record as 5. Besides, the “ZEAMX herbicidal damage score” value in experiment [9] turned out to be 4. Moreover, the “AMARE herbicidal damage score” value in experiment [10] was 5. The “ALOMY herbicidal damage score” value in experiment [11] is listed as 5. Besides, the “SETFA herbicidal damage score” value in experiment [12] stood at 5.

With `CC1=C(Cl)C(=O)N(c2cc(C(C)(C)C)ncn2)C1O` (stereo not drawn) [CF2], the “ABUTH damage score” value in [1] stood at 5. The “ECHCG damage score” value in experiment [2] is reported as 4. Moreover, the “ZEAMX damage score” value in [3] came to 3. Moreover, the “AMARE damage score” value in experiment [4] is on record as 5. For the same compound, in experiment [5], the “ALOMY damage score” value is 4. The “SETFA damage score” value in experiment [6] turned out to be 4. For the same compound, in [7], the “ABUTH herbicidal damage score” value is listed as 5. The “ECHCG herbicidal damage score” value in experiment [8] came to 5. The “ZEAMX herbicidal damage score” value in experiment [9] is reported as 5. The “AMARE herbicidal damage score” value in [10] amounted to 5. Also, the “ALOMY herbicidal damage score” value in experiment [11] is recorded as 5. For the same compound, in experiment [12], the “SETFA herbicidal damage score” value came out at 5.

For the compound `COC1=C(C)C(O)N(c2cc(C(C)(F)F)c(C#N)nn2)C1=O` (stereo not drawn) [BI23], the “ABUTH damage score” value in experiment [1] is reported as 4. Also, in experiment [2], the “ECHCG damage score” value worked out at 4. Further, the “ZEAMX damage score” value in experiment [3] was 1. Also, the “AMARE damage score” value in experiment [4] is recorded as 5. The “ALOMY damage score” value in [5] was found to be 4. For the same compound, the “SETFA damage score” value in experiment [6] is 2. In experiment [7], the “ABUTH herbicidal damage score” value came out at 4. In addition, the “ECHCG herbicidal damage score” value in [8] was found to be 4. The “ZEAMX herbicidal damage score” value in [9] amounted to 1. In addition, in experiment [10], the “AMARE herbicidal damage score” value amounted to 3. In addition, the “ALOMY herbicidal damage score” value in [11] stood at 4. Further, in experiment [12], the “SETFA herbicidal damage score” value is given as 4.

With `COC1=C(C)C(O)N(c2cc(C)c(OC)nn2)C1=O` (stereo not drawn) [BG1], the “ABUTH damage score” value in [1] was found to be 2. Further, the “ECHCG damage score” value in experiment [2] is listed as 4. Also, the “ZEAMX damage score” value in experiment [3] was determined as 1. In experiment [4], the “AMARE damage score” value is 5. Also, the “ALOMY damage score” value in experiment [5] is reported as 3. Further, the “SETFA damage score” value in experiment [6] was found to be 2. Further, the “ABUTH herbicidal damage score” value in [7] was found to be 5. Further, in experiment [8], the “ECHCG herbicidal damage score” value came out at 5. For the same compound, in experiment [9], the “ZEAMX herbicidal damage score” value is recorded as 4. Moreover, the “AMARE herbicidal damage score” value in experiment [10] was found to be 5. Also, the “ALOMY herbicidal damage score” value in [11] is on record as 4. In experiment [12], the “SETFA herbicidal damage score” value came to 5.

On to `CC1=C(Cl)C(=O)N(c2nccc(C(C)(C)C#N)n2)C1O` (stereo not drawn) [DF5], for which, in [1], the “ABUTH damage score” value is listed as 5. In addition, in experiment [2], the “ECHCG damage score” value is on record as 5. In addition, the “ZEAMX damage score” value in [3] is 3. Besides, in experiment [4], the “AMARE damage score” value is listed as 5. Besides, the “ALOMY damage score” value in [5] amounted to 4. Also, in experiment [6], the “SETFA damage score” value is given as 4. Besides, in experiment [7], the “ABUTH herbicidal damage score” value stood at 5. Besides, the “ECHCG herbicidal damage score” value in experiment [8] is 5. The “ZEAMX herbicidal damage score” value in experiment [9] is reported as 3. Moreover, in [10], the “AMARE herbicidal damage score” value is 5. For the same compound, the “ALOMY herbicidal damage score” value in [11] came out at 4. The “SETFA herbicidal damage score” value in experiment [12] is 4.

As to `CCOC(=O)c1cnc(N2C(=O)C(Cl)=C(C)C2O)cc1Cl` (stereo not drawn) [AF101], the “ABUTH damage score” value in experiment [1] is on record as 1. Further, the “ECHCG damage score” value in [2] is 0. In experiment [3], the “ZEAMX damage score” value is on record as 0. Moreover, the “AMARE damage score” value in [4] was found to be 2. For the same compound, the “ALOMY damage score” value in experiment [5] was 0. Besides, the “SETFA damage score” value in experiment [6] turned out to be 0. For the same compound, the “ABUTH herbicidal damage score” value in experiment [7] was determined as 5. In addition, the “ECHCG herbicidal damage score” value in experiment [8] was 3. Further, the “ZEAMX herbicidal damage score” value in experiment [9] was determined as 1. In addition, the “AMARE herbicidal damage score” value in experiment [10] stood at 5. Moreover, in [11], the “ALOMY herbicidal damage score” value came to 2. Moreover, in experiment [12], the “SETFA herbicidal damage score” value was determined as 5.

Turning to `CC1=C(Cl)C(=O)N(c2cc(C(F)(F)F)c(C(F)(F)F)cn2)C1O` (stereo not drawn) [AF43], in experiment [1], the “ABUTH damage score” value was 0. In experiment [2], the “ECHCG damage score” value worked out at 0. The “ZEAMX damage score” value in experiment [3] is 0. In addition, the “AMARE damage score” value in [4] is recorded as 0. Also, the “ALOMY damage score” value in experiment [5] is 0. Besides, in experiment [6], the “SETFA damage score” value is 0. The “ABUTH herbicidal damage score” value in [7] came to 1. For the same compound, the “ECHCG herbicidal damage score” value in experiment [8] was 5. Besides, in experiment [9], the “ZEAMX herbicidal damage score” value turned out to be 0. Moreover, the “AMARE herbicidal damage score” value in [10] was determined as 1. The “ALOMY herbicidal damage score” value in [11] is listed as 2. In addition, the “SETFA herbicidal damage score” value in experiment [12] came to 5.

Consider `CC1=C(Cl)C(=O)N(c2ccc(C(F)(F)F)nn2)C1O` (stereo not drawn) [BF7], for which the “ABUTH damage score” value in [1] came to 4. Moreover, in experiment [2], the “ECHCG damage score” value is reported as 3. Also, in experiment [3], the “ZEAMX damage score” value came to 1. Moreover, in [4], the “AMARE damage score” value was found to be 4. In experiment [5], the “ALOMY damage score” value is recorded as 2. For the same compound, in [6], the “SETFA damage score” value was found to be 4. In addition, in experiment [7], the “ABUTH herbicidal damage score” value is given as 2. The “ECHCG herbicidal damage score” value in experiment [8] was found to be 3. For the same compound, the “ZEAMX herbicidal damage score” value in experiment [9] was 2. In experiment [10], the “AMARE herbicidal damage score” value is on record as 2. Further, the “ALOMY herbicidal damage score” value in experiment [11] was found to be 2. In experiment [12], the “SETFA herbicidal damage score” value is 4.

Turning to `CC1=C(Cl)C(=O)N(c2cc(C3(C#N)CC3)ncn2)C1O` (stereo not drawn) [CF17], in experiment [1], the “ABUTH damage score” value is 2. For the same compound, the “ECHCG damage score” value in experiment [2] stood at 3. Besides, the “ZEAMX damage score” value in [3] was 2. The “AMARE damage score” value in [4] amounted to 5. For the same compound, in experiment [5], the “ALOMY damage score” value was 3. The “SETFA damage score” value in [6] turned out to be 5. Further, the “ABUTH herbicidal damage score” value in experiment [7] amounted to 5. For the same compound, the “ECHCG herbicidal damage score” value in experiment [8] turned out to be 5. In experiment [9], the “ZEAMX herbicidal damage score” value is 3. Further, the “AMARE herbicidal damage score” value in experiment [10] amounted to 5. In addition, in experiment [11], the “ALOMY herbicidal damage score” value was determined as 4. In experiment [12], the “SETFA herbicidal damage score” value is recorded as 5.
